The values below come from patent US12486495B2, “Cardiac organoid, manufacturing method therefor, and method for evaluating drug toxicity by using same” (priority 2020, dated 2025).

This data set concerns cardiac organoid.

The structures appear in SMILES notation. Bounds are passed on as bounds.

On to `COc1ccc(CCN(C)CCCC(C#N)(c2ccc(OC)c(OC)c2)C(C)C)cc1OC` (stereo not shown) [verapamil], for which, under “FIG. 13A, heat maps for beating velocity, after drug treatment”, the “beating velocity after treatment with calcium antagonist” value is listed as “reduced”. Besides, the “beating velocity after washing” value (FIG. 13A, after washing and culturing for 1 hour) is listed as “again increased”. The “conduction displacement after treatment” value (comparison of three treatment amount groups (100 nM, 1 μM, 10 μM), FIG. 13B/13C) is “highest in a 1 μM group”. Also, the “conduction displacement after washing” value (comparison of three treatment amount groups, FIG. 13B/13C) is “highest in the 1 μM group”. In addition, for the setting “comparison of three treatment amount groups, FIG. 13C”, the “beat rate variation after washing” value is “highest in the 10 μM group”. Where the note is “inferred from beat rate variation at low treatment amount”, the “drug toxicity of the heart, comparison” value was “higher than that of nifedipine”. Also, the “treatment amount at which side effects in the heart in vivo may be caused” value (inferred from beat rate variation of the cardiac organoid) is given as ≥ 100 nM.
